Laboratory results: ChEMBL document CHEMBL2396574, “Design, synthesis and evaluation of retinoids with novel bulky hydrophobic partial structures” (Bioorg Med Chem, 2013)
Calls of active or inactive are those of the source. The rule behind the calls is not given here.

Each compound was assayed on HL-60 (assay: Induction of human HL60 cell differentiation into myeloid cells at 10 nM after 4 days by NBT reduction assay relative to control). Conditions: not given.
Type: functional

| SMILES | Activity |
| --- | --- |
| O=C(Nc1ccc(C(=O)O)c(F)c1)c1cc2c3c(c1)CCCCC3CCCC2 | 28% |
| O=C(Nc1ccc(C(=O)O)c(F)c1)c1cc2c3c(c1)CCCC3CCC2 | 49% |
| O=C(O)c1ccc(NC(=O)c2cc3c4c(c2)CCCCC4CCCC3)cc1 | 34% |
| COc1cc(NC(=O)c2cc3c4c(c2)CCCC4(C)CCC3)ccc1C(=O)O | 5% |
| CC12CCCc3cc(C(=O)Nc4ccc(C(=O)O)c(O)c4)cc(c31)CCC2 | 17% |
| O=C(Nc1ccc(C(=O)O)c(Cl)c1)c1cc2c3c(c1)CCCCC3CCCC2 | 18% |

These compounds were tested on HL-60 (assay: Induction of human HL60 cell differentiation into myeloid cells at 100 nM after 4 days by NBT reduction assay relative to control). Conditions: not given.
Type: functional

| SMILES | Activity |
| --- | --- |
| O=C(Nc1ccc(C(=O)O)c(F)c1)c1cc2c3c(c1)CCCCC3CCCC2 | 44% |
| O=C(Nc1ccc(C(=O)O)c(F)c1)c1cc2c3c(c1)CCCC3CCC2 | 60% |
| O=C(O)c1ccc(NC(=O)c2cc3c4c(c2)CCCCC4CCCC3)cc1 | 40% |
| COc1cc(NC(=O)c2cc3c4c(c2)CCCC4(C)CCC3)ccc1C(=O)O | 17% |
| CC12CCCc3cc(C(=O)Nc4ccc(C(=O)O)c(O)c4)cc(c31)CCC2 | 32% |
| O=C(Nc1ccc(C(=O)O)c(Cl)c1)c1cc2c3c(c1)CCCCC3CCCC2 | 35% |

What follows are compounds tested against T1, Retinoic acid receptor gamma (Homo sapiens) (UniProt P13631) (assay: Transactivation of Gal4-fused RARgamma (unknown origin) expressed in African green monkey COS1 cells at 100 nM by luciferase reporter gene assay relative to DMSO-treated control). Conditions: COS-1.
T1 sequence (whole entry): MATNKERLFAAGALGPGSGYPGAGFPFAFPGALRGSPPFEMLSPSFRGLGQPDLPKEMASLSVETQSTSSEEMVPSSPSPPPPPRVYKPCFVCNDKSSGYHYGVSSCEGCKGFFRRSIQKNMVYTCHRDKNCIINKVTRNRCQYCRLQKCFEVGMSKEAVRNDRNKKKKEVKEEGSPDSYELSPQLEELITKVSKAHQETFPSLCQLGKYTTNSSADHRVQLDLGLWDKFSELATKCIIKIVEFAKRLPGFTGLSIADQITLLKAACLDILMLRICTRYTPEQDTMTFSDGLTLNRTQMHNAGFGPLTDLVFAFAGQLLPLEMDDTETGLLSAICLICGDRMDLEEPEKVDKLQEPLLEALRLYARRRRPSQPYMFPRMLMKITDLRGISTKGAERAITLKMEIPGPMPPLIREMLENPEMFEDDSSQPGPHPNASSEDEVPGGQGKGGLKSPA
Type: cell-based

| fold change (FC) | SMILES |
| --- | --- |
| 5 | O=C(Nc1ccc(C(=O)O)c(F)c1)c1cc2c3c(c1)CCCCC3CCCC2 |
| 2 | O=C(Nc1ccc(C(=O)O)c(F)c1)c1cc2c3c(c1)CCCC3CCC2 |
| 2 | O=C(Nc1ccc(C(=O)O)c(Cl)c1)c1cc2c3c(c1)CCCCC3CCCC2 |

The remaining lines, values behind:

| SMILES | fold change (FC) |
| --- | --- |
| O=C(O)c1ccc(NC(=O)c2cc3c4c(c2)CCCCC4CCCC3)cc1 | 10 |
| COc1cc(NC(=O)c2cc3c4c(c2)CCCC4(C)CCC3)ccc1C(=O)O | 1 |
| CC12CCCc3cc(C(=O)Nc4ccc(C(=O)O)c(O)c4)cc(c31)CCC2 | 1 |

The compounds below were run against T2, Retinoic acid receptor RXR-beta (Homo sapiens) (UniProt P28702) (assay: Transactivation of full-length RXRbeta (unknown origin) expressed in African green monkey COS1 cells at 1000 nM by luciferase reporter gene assay). Conditions: COS-1.
T2 sequence (whole entry): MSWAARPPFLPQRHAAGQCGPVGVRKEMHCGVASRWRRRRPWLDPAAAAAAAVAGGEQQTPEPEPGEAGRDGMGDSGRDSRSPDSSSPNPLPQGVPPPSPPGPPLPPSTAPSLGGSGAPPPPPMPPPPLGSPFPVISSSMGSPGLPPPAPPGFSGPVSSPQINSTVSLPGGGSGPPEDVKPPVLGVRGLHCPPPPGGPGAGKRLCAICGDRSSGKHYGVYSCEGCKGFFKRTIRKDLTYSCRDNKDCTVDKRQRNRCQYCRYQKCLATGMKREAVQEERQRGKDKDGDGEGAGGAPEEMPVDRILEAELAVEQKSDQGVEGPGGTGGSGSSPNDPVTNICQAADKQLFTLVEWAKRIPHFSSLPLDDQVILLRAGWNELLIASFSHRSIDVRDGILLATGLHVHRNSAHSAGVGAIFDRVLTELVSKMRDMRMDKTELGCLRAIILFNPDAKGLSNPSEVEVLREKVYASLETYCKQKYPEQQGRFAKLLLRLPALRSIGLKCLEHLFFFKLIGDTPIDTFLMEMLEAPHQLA
Type: cell-based

| Activity | SMILES |
| --- | --- |
| inactive | O=C(Nc1ccc(C(=O)O)c(F)c1)c1cc2c3c(c1)CCCCC3CCCC2 |
| inactive | O=C(Nc1ccc(C(=O)O)c(F)c1)c1cc2c3c(c1)CCCC3CCC2 |
| inactive | O=C(Nc1ccc(C(=O)O)c(Cl)c1)c1cc2c3c(c1)CCCCC3CCCC2 |

The remaining lines, values behind:

| SMILES | Activity |
| --- | --- |
| O=C(O)c1ccc(NC(=O)c2cc3c4c(c2)CCCCC4CCCC3)cc1 | inactive |
| COc1cc(NC(=O)c2cc3c4c(c2)CCCC4(C)CCC3)ccc1C(=O)O | inactive |
| CC12CCCc3cc(C(=O)Nc4ccc(C(=O)O)c(O)c4)cc(c31)CCC2 | inactive |

Each compound was assayed against T3, Retinoic acid receptor beta (Homo sapiens) (UniProt P10826) (assay: Transactivation of Gal4-fused RARbeta (unknown origin) expressed in African green monkey COS1 cells at 100 nM by luciferase reporter gene assay relative to DMSO-treated control). Conditions: COS-1.
T3 sequence (whole entry): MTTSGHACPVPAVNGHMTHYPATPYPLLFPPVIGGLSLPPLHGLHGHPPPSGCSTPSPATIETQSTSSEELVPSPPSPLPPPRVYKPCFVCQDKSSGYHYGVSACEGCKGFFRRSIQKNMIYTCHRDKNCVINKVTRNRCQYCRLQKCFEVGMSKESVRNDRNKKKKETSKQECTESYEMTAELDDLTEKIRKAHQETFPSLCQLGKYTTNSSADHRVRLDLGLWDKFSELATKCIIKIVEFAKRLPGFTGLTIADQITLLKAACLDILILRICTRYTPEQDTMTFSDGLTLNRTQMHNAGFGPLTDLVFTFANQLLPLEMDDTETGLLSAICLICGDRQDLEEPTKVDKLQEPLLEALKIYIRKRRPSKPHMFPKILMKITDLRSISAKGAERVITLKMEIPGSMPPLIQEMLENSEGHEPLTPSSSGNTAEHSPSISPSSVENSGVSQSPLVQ
Type: cell-based

| fold change (FC) | SMILES |
| --- | --- |
| 19 | O=C(Nc1ccc(C(=O)O)c(F)c1)c1cc2c3c(c1)CCCCC3CCCC2 |
| 7 | O=C(Nc1ccc(C(=O)O)c(F)c1)c1cc2c3c(c1)CCCC3CCC2 |
| 13 | O=C(Nc1ccc(C(=O)O)c(Cl)c1)c1cc2c3c(c1)CCCCC3CCCC2 |

Continued, compound first:

| SMILES | fold change (FC) |
| --- | --- |
| O=C(O)c1ccc(NC(=O)c2cc3c4c(c2)CCCCC4CCCC3)cc1 | 27 |
| COc1cc(NC(=O)c2cc3c4c(c2)CCCC4(C)CCC3)ccc1C(=O)O | 3 |
| CC12CCCc3cc(C(=O)Nc4ccc(C(=O)O)c(O)c4)cc(c31)CCC2 | 7 |

These compounds were tested on HL-60 (assay: Induction of human HL60 cell differentiation into myeloid cells at 10^-6 M after 4 days by NBT reduction assay). Conditions: not given.
Type: functional, cell-based

| SMILES | Activity |
| --- | --- |
| O=C(Nc1ccc(C(=O)O)c(F)c1)c1cc2c3c(c1)CCCCC3CCCC2 | Active |

The compounds below were run against T4, Retinoic acid receptor RXR-gamma (Homo sapiens) (UniProt P48443) (assay: Transactivation of full-length RXRgamma (unknown origin) expressed in African green monkey COS1 cells at 1000 nM by luciferase reporter gene assay). Conditions: COS-1.
T4 sequence (whole entry): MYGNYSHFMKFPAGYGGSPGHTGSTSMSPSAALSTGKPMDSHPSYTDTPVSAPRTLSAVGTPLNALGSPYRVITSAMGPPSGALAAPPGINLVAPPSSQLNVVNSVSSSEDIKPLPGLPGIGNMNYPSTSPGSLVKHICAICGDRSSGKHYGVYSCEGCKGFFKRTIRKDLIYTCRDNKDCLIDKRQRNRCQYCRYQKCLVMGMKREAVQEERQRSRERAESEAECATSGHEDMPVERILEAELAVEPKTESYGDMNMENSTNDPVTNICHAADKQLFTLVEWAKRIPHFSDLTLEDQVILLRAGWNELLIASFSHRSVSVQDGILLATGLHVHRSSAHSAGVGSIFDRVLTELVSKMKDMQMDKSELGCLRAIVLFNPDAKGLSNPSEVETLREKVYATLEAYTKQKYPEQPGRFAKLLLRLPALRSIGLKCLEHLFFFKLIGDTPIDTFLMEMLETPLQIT
Type: cell-based

| Activity | SMILES |
| --- | --- |
| inactive | O=C(Nc1ccc(C(=O)O)c(F)c1)c1cc2c3c(c1)CCCCC3CCCC2 |
| inactive | O=C(Nc1ccc(C(=O)O)c(F)c1)c1cc2c3c(c1)CCCC3CCC2 |
| inactive | O=C(Nc1ccc(C(=O)O)c(Cl)c1)c1cc2c3c(c1)CCCCC3CCCC2 |

The next lines start with the compound.

| SMILES | Activity |
| --- | --- |
| O=C(O)c1ccc(NC(=O)c2cc3c4c(c2)CCCCC4CCCC3)cc1 | inactive |
| COc1cc(NC(=O)c2cc3c4c(c2)CCCC4(C)CCC3)ccc1C(=O)O | inactive |
| CC12CCCc3cc(C(=O)Nc4ccc(C(=O)O)c(O)c4)cc(c31)CCC2 | inactive |
